Experiment: Study HDP-CDV-201: safety and tolerability (adverse events, laboratory abnormalities, discontinuations)
Assay type: in vivo, human (adult allogeneic HSCT recipients)
Procedure: Clinical Studies of HDP-CDV were performed and described in detail in the following Examples. For example, HDP-CDV-201 is a placebo-controlled, dose-escalating trial in HSCT CMV (R+) recipients, evaluating the ability of HDP-CDV to prevent or control CMV infection was carried out. Five cohorts were established in which participants or subjects received either placebo or the HDP-CDV orally, in doses ranging from 40 mg weekly (QW) to 200 mg twice weekly (BIW). Subjects who were post-HSCT were enrolled at the time of engraftment and randomized to HDP-CDV or placebo (3 to 1 ratio) and received blinded therapy until approximately 100 day post-transplantation. HDP-CDV doses were 40 mg QW, 100 mg QW, 200 mg QW, 200 mg BIW and 100 mg BIW. Escalation to the next dose was decided by the data monitoring committee after review of the safety data from the previous Cohort. Subjects who developed CMV disease or CMV infection requiring pre-emptive therapy with local standard of care were discontinued from blinded therapy and followed for 4 weeks. Subjects who completed treatment with blinded therapy were followed for 8 weeks post-therapy.
Data from Study HDP-CDV-201 also provided characterization of the safety and tolerability profile of HDP-CDV when administered for the prevention or control of CMV infection in high risk (R^+) post-HSCT adult subjects.
The Safety population (SAFETY) included all randomized subjects who took at least one dose of study treatment. This population was used to summarize safety outcomes based on the treatment actually received, in cases where a subject was treated contrary to the randomization schedule.
The safety and tolerability profile of HDP-CDV, including subject demographics and Baseline characteristics; the AE profile; and laboratory abnormalities of interest were analyzed in the cohorts followed in this investigation.
Subjects completing the treatment period received a full course of study medication; those completing the entire study attended visits through 8 weeks of follow up. Subjects who discontinued treatment may have done so for protocol specified reasons (e.g. development of clinically significant CMV infection requiring preemptive treatment with excluded anti-CMV medications) or for other reasons (e.g., withdrawal, adverse events, loss to follow-up). The disposition of subjects in Study HDP-CDV-201 during the double-blind, placebo-controlled treatment period (through Week 11) is listed by dosing Cohort in TABLE 23.
Adverse events were examined by severity to ensure that all safety signals were identified in this study population. Because of the frequency of events in HSCT recipients, particular attention was given to evaluation of Grade 3 […], 4 (severe), and 5 (fatal) adverse events.
Only those preferred terms for which at least one Grade 3 or higher event was experienced in any treatment group are listed. Cytomegalovirus-related AEs are excluded from this analysis.
HDP-CDV is a lipid conjugate of CDV. Because CDV is known to have adverse effects on renal function and bone marrow, decreased GFR and persistent neutropenia were identified as AEs of special interest. Key renal and hematological (TABLE 30) laboratory parameters were measured and listed below by Study HDP-CDV-201 treatment groups. TABLE 30 includes abnormal levels of serum creatinine, neutrophils, platelets, WBCs, and hemoglobin and includes data at Screening and during the treatment period.
A common metric for unit based dosing of medications is by weight (mg/kg). When the distribution of weights was examined for all subjects participating in the study, the median was 78 kg and the lower 25th percentile weight was approximately 65 kg, which translates to a cut-off of ˜3 mg/kg for a 200 mg total weekly dose. Based upon this approach, a cut-off of 3 mg/kg was used to assess the frequency of diarrhea and associated GI AEs reported for the subjects in Cohorts 3 or 4a (TABLE 40).

[1] = Cohort 4A, 100 mg BIW, through Week 11

Compound: CCCCCCCCCCCCCCCCOCCCOP(=O)(O)COC(CO)Cn1ccc(N)nc1=O (stereo not shown) [HDP-CDV]
- TEAE Cytomegalovirus viremia (Cohort 4A, 100 mg BIW, N = 50): 6 (12.0%) n (%)
- TEAE Decreased appetite (Cohort 4A, 100 mg BIW, N = 50): 9 (18.0%) n (%)
- TEAE Diarrhoea (Cohort 4A, 100 mg BIW, N = 50): 26 (52.0%) n (%)
- TEAE Dysgeusia (Cohort 4A, 100 mg BIW, N = 50): 4 (8.0%) n (%)
- TEAE Fatigue (Cohort 4A, 100 mg BIW, N = 50): 9 (18.0%) n (%)
- TEAE GI Reflux Disease (Cohort 4A, 100 mg BIW, N = 50): 0 n (%)
- TEAE Gamma-glutamyltransferase increased (Cohort 4A, 100 mg BIW, N = 50): 4 (8.0%) n (%)
- TEAE Generalized oedema (Cohort 4A, 100 mg BIW, N = 50): 1 (2.0%) n (%)
- TEAE Hyperbilirubinaemia (Cohort 4A, 100 mg BIW, N = 50): 3 (6.0%) n (%)
- TEAE Hyperglycaemia (Cohort 4A, 100 mg BIW, N = 50): 9 (18.0%) n (%)
- TEAE Hyperkalemia (Cohort 4A, 100 mg BIW, N = 50): 3 (6.0%) n (%)
- TEAE Hypocalcaemia (Cohort 4A, 100 mg BIW, N = 50): 2 (4.0%) n (%)
- TEAE Hypokalaemia (Cohort 4A, 100 mg BIW, N = 50): 8 (16.0%) n (%)
- TEAE Hyponatraemia (Cohort 4A, 100 mg BIW, N = 50): 1 (2.0%) n (%)
- TEAE Increased leukocytosis (Cohort 4A, 100 mg BIW, N = 50): 2 (4.0%) n (%)
- TEAE Insomnia (Cohort 4A, 100 mg BIW, N = 50): 9 (18.0%) n (%)
- TEAE Liver function test abnormal (Cohort 4A, 100 mg BIW, N = 50): 2 (4.0%) n (%)
- TEAE Malnutrition (Cohort 4A, 100 mg BIW, N = 50): 1 (2.0%) n (%)
- TEAE Nausea (Cohort 4A, 100 mg BIW, N = 50): 17 (34.0%) n (%)
- TEAE Neutropenia (Cohort 4A, 100 mg BIW, N = 50): 10 (20.0%) n (%)
- TEAE Oedema peripheral (Cohort 4A, 100 mg BIW, N = 50): 8 (16.0%) n (%)
- TEAE Oral Candidiasis (Cohort 4A, 100 mg BIW, N = 50): 6 (12.0%) n (%)
- TEAE Pneumonia (Cohort 4A, 100 mg BIW, N = 50): 5 (10.0%) n (%)
- TEAE Pyrexia (Cohort 4A, 100 mg BIW, N = 50): 10 (20.0%) n (%)
- TEAE Recurrent flatulence (Cohort 4A, 100 mg BIW, N = 50): 3 (6.0%) n (%)
- TEAE Renal Failure (Cohort 4A, 100 mg BIW, N = 50): 5 (10.0%) n (%)
- TEAE Staphylococcal Bacteremia (Cohort 4A, 100 mg BIW, N = 50): 6 (12.0%) n (%)
- TEAE Thrombocytopenia (Cohort 4A, 100 mg BIW, N = 50): 7 (14.0%) n (%)
- TEAE Tremor (Cohort 4A, 100 mg BIW, N = 50): 1 (2.0%) n (%)
- TEAE Vomiting (Cohort 4A, 100 mg BIW, N = 50): 22 (44.0%) n (%)
- Vomiting leading to study drug withdrawal (Cohort 4A, 100 mg BIW, N = 50): 1 (2.0%)
- All AEs, Grade 5 (deaths) (Cohort 4A, 100 mg BIW, N = 50, entire study duration): 5 (10.0%)
- Subjects completed treatment [1]: 30 (60.0%) n (%)
- Subjects who permanently discontinued treatment [1]: 20 (40.0%) n (%)
- Abnormal ALT >3-5x ULN, Any Time Between Week 2 and Week 10, subjects (Cohort 4A, >3.0 mg/kg/wk): 4 (40.0%)
- Abnormal ALT >3-5x ULN, Screening, subjects (Cohort 4A, >3.0 mg/kg/wk): 0
- Abnormal ALT >5-10x ULN, Any Time Between Week 2 and Week 10, subjects (Cohort 4A, >3.0 mg/kg/wk): 1 (10.0%)
- Abnormal ALT >5-10x ULN, Screening, subjects (Cohort 4A, >3.0 mg/kg/wk): 0
- Abnormal ALT >10-20x ULN, Any Time Between Week 2 and Week 10, subjects (Cohort 4A, >3.0 mg/kg/wk): 0
- Abnormal ALT >10-20x ULN, Screening, subjects (Cohort 4A, >3.0 mg/kg/wk): 0
- Abnormal ALT >20x ULN, Any Time Between Week 2 and Week 10, subjects (Cohort 4A, >3.0 mg/kg/wk): 1 (10.0%)
- Abnormal ALT >20x ULN, Screening, subjects (Cohort 4A, >3.0 mg/kg/wk): 0
- Abnormal ALT >3-5x ULN, Any Time Between Week 2 and Week 10, subjects (Cohort 4A, ≦3.0 mg/kg/wk): 6 (15.0%)
- Abnormal ALT >3-5x ULN, Screening, subjects (Cohort 4A, ≦3.0 mg/kg/wk): 1 (2.8%)
- Abnormal ALT >5-10x ULN, Any Time Between Week 2 and Week 10, subjects (Cohort 4A, ≦3.0 mg/kg/wk): 3 (7.5%)
- Abnormal ALT >5-10x ULN, Screening, subjects (Cohort 4A, ≦3.0 mg/kg/wk): 1 (2.8%)
- Abnormal ALT >10-20x ULN, Any Time Between Week 2 and Week 10, subjects (Cohort 4A, ≦3.0 mg/kg/wk): 1 (2.5%)
- Abnormal ALT >10-20x ULN, Screening, subjects (Cohort 4A, ≦3.0 mg/kg/wk): 1 (2.8%)
- Abnormal ALT >20x ULN, Any Time Between Week 2 and Week 10, subjects (Cohort 4A, ≦3.0 mg/kg/wk): 0
- Abnormal ALT >20x ULN, Screening, subjects (Cohort 4A, ≦3.0 mg/kg/wk): 0
- Grade of hepatobiliary AE cholecystitis, subject 4058 (Cohort 4a): 3
- Grade of hepatobiliary AE hyperbilirubinemia, subject 4080 (Cohort 4a): 1
- Grade of hepatobiliary AE hyperbilirubinemia, subject 4090 (Cohort 4a): 2
- Grade of hepatobiliary AE worsening hyperbilirubinemia, subject 4109 (Cohort 4a): 1
- Outcome of hepatobiliary AE cholecystitis, subject 4058 (Cohort 4a): recovered/resolved
